Laboratory results taken from patent US10639306B2, “Aldose reductase inhibitors and uses thereof” (The Trustees of Columbia University in the City of New York, priority 2010, dated 2020).
Where two headings read alike, the source gives them in different places.

Key:
[1] = Solubility in Krebs-Henseleit buffer; assay type: physicochemical; conditions: Krebs-Henseleit buffer with glucose, palmitate, bovine serum albumin, insulin
[2] = assay type: physicochemical; conditions: for Area (integration of absorbance peak): 3 min, pH 7.1
Description: Each sample of Compound A & zopolrestat were placed, separately, in water (MQW ultra nanopure) at ambient temperature and vortexed for 3 minutes. The aliquots were then filtered through a tightly-packed cotton plug (placed in a pipette) to remove any residual solids. The attempted concentrations of the respective solutions of Compound A and zopolrestat made were 0.05 mg/mL, 0.1 mg/mL, 0.5 mg/mL, 1.0 mg/mL, 5.0 mg/mL, and 10.0 mg/mL. The pH of the water used was 7.1 (measured electronically by an Orion perpHect LogR Meter Model #370).
The filtered samples were run through a binary gradient (program: 5%-100% MeCN over 30 mins) on a LC-MS (Shimadzu LCMS-2010A Liquid Chromatography Mass Spectrometer, reverse-phase column). A 5 μL volume of each sample solution was injected for each run. Each trace contained a peak (for Compound A, TR approx. 14.070 mins; for zopolrestat, TR approx. 16.666 mins) measured at a wavelength of 254 nm for which the respective parent ion masses were observed.
By comparing the absorbance areas under the peaks corresponding to Compound A & zopolrestat in each water solution made (Table 1), a solubility curve for each compound was generated (FIG. 1).

[3] = target: human recombinant aldose reductase (Homo sapiens, UniProt P15121); experiment: biochemical
Description: The reductase activity of Compound A and zopolrestat were spectrophotometrically assayed by following the decrease of NADPH at 25° C. for 4 min as described in Sato, S. (1992), “Rat kidney aldose reductase and aldehyde reductase and polyolproduction in rat kidney” Am. J. Physiol. 263, F799.F805, incorporated by reference herein in its entirety.
Briefly, the reaction mixture (total volume 1 ml) contained 0.1 mM NADPH, 100 mM substrate (DL-glyceraldehyde or L-xylose) and human recombinant aldose reductase (100 mU) in 0.1 M phosphate buffer, pH 6.2. The head to head experiment was carried out in a microplate assay for AR inhibition using D-Glyceraldehyde and NADPH and the absorbance changes were monitored at 340 nm and % inhibition was calculated for ARIs at concentrations ranging from 0.1 nM to 100 μM (Table 2 and FIG. 2). Data is presented as mean±standard deviation and is an average of 5 separate runs. The reaction was started by adding the substrate (glyceraldehyde or xylose) as well as the same reaction mixture in which the substrate replaced by deionized water was used as a control. One enzyme unit (U) was defined as the activity consuming 1 μmole of NADPH per min at 25° C.

Row | SMILES | melting point [°C] | Solubility in Krebs-Henseleit buffer [1] | Area (integration of absorbance peak) ([2]; 0.05 mg/mL) | Area (integration of absorbance peak) ([2]; 0.1 mg/mL) | Area (integration of absorbance peak) ([2]; 0.5 mg/mL) | Area (integration of absorbance peak) ([2]; 1 mg/mL) | Area (integration of absorbance peak) ([2]; 5 mg/mL) | Area (integration of absorbance peak) ([2]; 10 mg/mL) | inhibition at 1 pM [3] [%] | inhibition at 10 pM [3] [%] | Solubility in pH 7.1 water relative to Zopolrestat [2] | IC50 [3] [nM] | Activity relative to zopolrestat in vitro against aldose reductase ([3]; fold more active than zopolrestat)
1 | O=C(O)Cc1nn(Cc2nc3cc(Cl)ccc3s2)c(=O)c2nccnc12 | 196 to 197 | – | – | – | – | – | – | – | – | – | – | – | –
2 | O=C(O)Cc1nn(Cc2nc3cc(C(F)(F)F)ccc3s2)c(=O)c2ccccc12 [zopolrestat, reference compound] | – | heat was applied to render zopolrestat soluble | 1039247 | 1899466 | 4304556 | 6129559 | 13314544 | 13362465 | 11 | 29 | – | – | –
3 | O=C(O)Cc1nn(Cc2nc3cc(C(F)(F)F)ccc3s2)c(=O)c2nccnc12 [Compound A, 2-(8-oxo-7-((5-(trifluoromethyl)benzo[d]thiazol-2-yl)methyl)-7,8-dihydropyrazino[2,3-d]pyridazin-5-yl)acetic acid] | – | soluble without any precipitation or turbidity | 1811131 | 3221003 | 5814304 | 10515430 | 17216187 | 20397336 | – | – | significantly greater solubility | 0.0289 | approximately 100 ×
